Data reported in BindingDB's records for doi:10.1016/j.bmcl.2008.08.095 (Sunesis Pharmaceuticals, 2008).

Target: Focal adhesion kinase 1 (Homo sapiens, UniProt Q05397)
Sequence (Q05397 whole entry): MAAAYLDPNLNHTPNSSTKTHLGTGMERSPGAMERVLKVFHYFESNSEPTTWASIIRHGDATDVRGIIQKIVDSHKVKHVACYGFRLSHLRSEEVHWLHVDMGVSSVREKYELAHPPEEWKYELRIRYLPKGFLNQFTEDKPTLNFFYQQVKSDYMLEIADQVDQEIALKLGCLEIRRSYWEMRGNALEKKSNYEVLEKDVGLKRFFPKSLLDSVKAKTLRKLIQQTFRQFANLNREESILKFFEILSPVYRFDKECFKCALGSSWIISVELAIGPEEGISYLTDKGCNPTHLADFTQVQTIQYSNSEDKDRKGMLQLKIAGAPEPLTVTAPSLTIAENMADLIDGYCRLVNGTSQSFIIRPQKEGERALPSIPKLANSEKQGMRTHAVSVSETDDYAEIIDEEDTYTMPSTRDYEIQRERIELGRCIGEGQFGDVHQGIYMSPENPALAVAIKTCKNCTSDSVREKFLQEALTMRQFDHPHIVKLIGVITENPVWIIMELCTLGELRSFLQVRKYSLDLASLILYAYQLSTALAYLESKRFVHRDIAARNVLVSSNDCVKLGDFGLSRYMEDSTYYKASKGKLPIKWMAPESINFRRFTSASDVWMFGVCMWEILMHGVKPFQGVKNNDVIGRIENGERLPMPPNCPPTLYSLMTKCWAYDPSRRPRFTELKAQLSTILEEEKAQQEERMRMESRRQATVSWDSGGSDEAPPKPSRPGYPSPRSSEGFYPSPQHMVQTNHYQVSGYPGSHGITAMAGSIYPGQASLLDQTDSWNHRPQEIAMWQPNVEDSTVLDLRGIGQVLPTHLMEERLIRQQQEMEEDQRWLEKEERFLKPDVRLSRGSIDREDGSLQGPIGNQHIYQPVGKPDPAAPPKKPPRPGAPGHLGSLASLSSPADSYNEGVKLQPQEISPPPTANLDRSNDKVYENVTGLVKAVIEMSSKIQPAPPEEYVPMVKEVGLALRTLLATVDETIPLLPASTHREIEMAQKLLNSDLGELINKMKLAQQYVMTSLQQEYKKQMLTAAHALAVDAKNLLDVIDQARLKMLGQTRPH

`Cc1nn(-c2cc(Cl)cc(CCC(N)=O)c2)c2cc(N[C@@H](C)c3ccccc3)ncc12` [3-[3-chloro-5-(3-methyl-6-{[(1S)-1-phenylethyl]amino}-1H-pyrazolo[4,3-c]pyridin-1-yl)phenyl]propanamide] gave an IC50 of 7.46 µM.

`CC(=O)Nc1ccccc1-c1cc(Cl)cc(-n2nc(C)c3cnc(N[C@@H](C)c4ccccc4)cc32)c1` [N-{2-[3-chloro-5-(3-methyl-6-{[(1S)-1-phenylethyl]amino}-1H-pyrazolo[4,3-c]pyridin-1-yl)phenyl]phenyl}acetamide] gave an IC50 of 6.28 µM.
